We go through 2 compounds from patent publication US10772887B2, “Anti-HTLV-1 drug and therapeutic agent for HTLV-1-associated myelopathy/tropical spastic paraparesis (HAM/TSP)” (Kagoshima University, priority 2016, dated 2020).

The conditions of data set [1]: read-out: Cmax concentration; based on package inserts / in vivo dynamics data; concentration examined in terms of Cmax; cited from earlier work.
Another data set has as its system NC-derived CD4+ T cells. Conditions: 5 μM, 24-hour treatment, FIG. 2 A/B.
Data set [2] has as its system HAM-derived non-CD4-PBMCs. The settings on record: 5 μM, 24-hour treatment, FIG. 2 C/D.
The next data set has as its system NC-derived non-CD4-PBMCs. Conditions: 5 μM, 24-hour treatment, FIG. 2 C/D.
For data set [3], the system named is HTLV-1 pX (proviral load) in live cells of PBMCs from AC-derived cases. The experiment in a line: PMA-HTLV-1 viability PCR, PBMCs from AC-derived cases. Type of data set: cell-based. The method, then: PBMCs (1×10^7 cells) from 14 AC-derived cases frozen and preserved in liquid nitrogen were used.
Specimens frozen and preserved in liquid nitrogen were thawed in a water bath at 37° C. and washed twice with approximately 10 mL of PBS at 300×g during centrifugation for 10 minutes, and resuspended in 1 mL of PBS. The cell concentration was counted by the trypan blue exclusion method. Thereafter, each specimen was divided into two groups such that each group includes approximately 100,000 PBMCs. One of the groups was not subjected to PMA treatment, and the other group was subjected to PMA treatment. The sample groups were named “Sample No-Drug-P−” and “Sample No-Drug-P+,” respectively.
A PMA stock solution was added to the sample named “Sample No-Drug-P+” to yield a final concentration of 50 μM in the manner described in Example 2, occasionally shaken under light protection at room temperature for 5 minutes for PMA treatment, and treated with a photo-crosslinker under a halogen lamp for crosslinking during air-cooling for 5 minutes. Genomic DNA was extracted from both samples including the former sample which was not subjected to PMA treatment using DNeazy Blood & Tissue Kits (Cat No 69504, QIAGEN).
RPMI1640 (supplemented with 10% fetal bovine serum, 1% penicillin, and streptomycin) in a volume of 7 mL+α was added to the cell suspension remaining after preparing the two samples in (4-1-2), followed by vortexing. […] After mixing with a shaker for a short period of time, the cells were cultured in a 5% CO2 incubator.
After T=6 h, each specimen was subjected to PMA treatment and crosslinking, and then, genomic DNA was extracted therefrom according to the method described in Example 2.
PMA treatment and DNA extraction were carried out according to the method described in Example 2. Accordingly, 10 samples of genomic DNA from each AC sample to be tested, that is to say, 140 samples from 14 specimens, were prepared.
In this Example, the methods described in Example 2 were used for DNA concentration measurement, working solution preparation, real-time PCR, and the method for calculating PMA-HTLV-1 viability PCR indexes.
All samples were examined at N=14.

In data set [4] the test system is HTLV-1 pX (proviral load) in live cells of PBMCs from HAM cases. The data set is described as follows: PMA-HTLV-1 viability PCR, PBMCs from HAM cases. Type of data set: cell-based. Further details: key to ΔCτ Drug Mean: ΔCτ = CτD−P+ − CτD+P+ (Cτ shift by drug, PMA-treated). Conditions: N=16. The procedure: PBMCs from 16 HAM cases frozen and preserved in liquid nitrogen were used.
A PMA stock solution (20 mM, frozen and preserved at −20° C. under light protection) was added to cell samples to yield a final concentration of 50 μM, and the tubes were incubated in a dark place (wrapped in aluminum foil) at room temperature for 5 minutes (each tube was sometimes flicked by fingers for mixing).
A photo-crosslinker and a halogen lamp were always used to perform photo-crosslinking using a household 100-V AC power source. The cell specimen volume was adjusted by appropriately adding PBS to 200 μL and irradiation was carried out for 5 minutes at a position 20 cm away from the halogen lamp in the dark. […] Each sample tube was sometimes flicked by fingers for mixing
Frozen PBMC specimens were thawed in a water bath at 37° C. and washed twice with PBS at 300×g, and then, the pellet was suspended in 1 mL of PBS and placed on ice. The cell concentration was counted by the trypan blue exclusion method using a hemocytometer.
Approximately 5×10^5 to 1×10^6 cells were collected in two Eppendorf tubes and the solution volume was adjusted to 200 μL by adding PBS if appropriate. One of the tubes was subjected to PMA treatment and photo-crosslinking, and the other tube was not treated in the same manner. DNA was extracted from both tubes using DNeasy Blood & Tissue Kits (QIAGEN).
To the remaining liquid of the cell suspension of each cell specimen, approximately 7.5 mL of cell medium RPMI1640 (supplemented with 10% of fetal calf serum and 1% of penicillin-streptomycn) was added to adjust the total volume to 8.0 mL+α. Each mixture was plated in a volume of approximately 2000 μL on a 6-well polystyrene plate such that 4 wells were used per cell specimen.
After adding the drug, each mixture was gently shaken on a shaker and incubation was started at 37° C. in a 5% CO2 incubator.
At T=6 h, about a half volume of the cell suspension of each well was harvested, collected in an Eppendorf tube, and centrifuged at 3,500 rpm×10 min. The supernatant was discarded, and the pellet was resuspended with 1 mL of PBS. Centrifugation was performed again at 3,500 rpm×10 min, and the supernatant was discarded, followed by washing. PBS was added to yield a volume of 200 μL, and all specimens were subjected to PMA treatment and photo-crosslinking. Subsequently, the specimens were washed with PBS again, and DNA was extracted with DNeasy Blood & Tissue Kits (QIAGEN).
The procedures were performed as in the case of T=6 h described in (1-2-5) above. DNA samples were named, for example, “Sample No-Imatinib600 nM-12 h.”
The DNA concentration was measured by ND-1000 (Thermo Fisher Scientific), and DNA was prepared in an amount (10 ng/μL×triplicate or more) sufficient for real-time PCR to be performed in triplicate. DNA was frozen and preserved at −20° C. until use.
According to the protocol (for the PCR system of 25 μL in total) of TaqMan Universal Master Mix II (#4440044, Thermo Fisher Scientific), 20 μM forward and reverse primers, 8 μM TaqMan probes, 2× Universal Master Mix II, and D2 W were mixed. The mixture was pipetted in a volume of 25 μL into each of triplicate wells of a MicroAmp Fast 96-well Reaction Plate (0.1 mL) (REF 4346907, Applied Biosystems) provided with MicroAmp Optical Adhesive Film (P/N 4311971, Applied Biosystems).
A standard dilution series for standard curve creation was prepared from the following five points for pX: NTC (No Template Control); 2 copies/μL (10 copies at 5 μL); 20 copies/μL (100 copies at 5 μL); 200 copies/μL (1000 copies at 5 μL); and […] (10000 copies at 5 μL).
The thermal cycle program was carried out using the StepOne Plus real-time PCR system (Applied Biosystems) and StepOne software ver. 2.3 with 1 cycle in a holding stage at 50° C.×2 minutes and 95° C.×10 minutes and 45 cycles of amplification at 95° C.×15 seconds and 60° C.×1 minute.
Index of the Cτ extension effect by ABL1 inhibitor treatment: ΔCτDrug=CτD−P+−CτD+P+ [Formula 3]

For data set [5], the system named is HTLV-1 proviral load (PVL). The data set is described as follows: Peripheral blood PVL before and after oral imatinib in an anti-HTLV-1 antibody-positive CML patient with HAM. Type of data set: in vivo, human. The settings on record: 2844 copies before drug administration, one patient.

Each structure is given as a SMILES string. “And” between values parts separate entries of the source, which are not always exact repeats. Identical values can stand only once.

For `Cc1cn(-c2cc(NC(=O)c3ccc(C)c(Nc4nccc(-c5cccnc5)n4)c3)cc(C(F)(F)F)c2)cn1` [nilotinib], in data set [1], the Cmax was 3000 nM. In addition, the “cell death of HAM-derived CD4+ T cells” value with HAM-derived CD4+ T cells is reported as “cause cell death to occur”. The “cell death of NC-derived CD4+ T cells” value in the data set on NC-derived CD4+ T cells is “cell death does not occur”. Moreover, the “cell death of non-CD4-PBMCs, HAM” value in data set [2] is “significantly observed”. Besides, in the data set with NC-derived non-CD4-PBMCs, the “cell death of non-CD4-PBMCs, NC” value is on record as “significantly observed”. In addition, the “pX decrease rate in live cells (%) Mean” value in data set [3] (Nilotinib 30 nM, 6 h, N=14) is 53.23%; in data set [3] (Nilotinib 30 nM, 12 h, N=14), ~71% and 71.38%; in data set [3] (Nilotinib 30 nM, 12 h, N=14, listed as Nilotinib), 71.38%; in data set [3] (Nilotinib 3 μM, 6 h, N=14), 50.50%; in data set [3] (Nilotinib 3 μM, 12 h, N=14), 58.56%; in data set [4] (Nilotinib 30 nM, 6 h) it was 69.51%. The “pX decrease rate in live cells (%) Mean” value in data set [4] (Nilotinib 30 nM, 12 h) came out at 78.00%; in data set [4] (Nilotinib 3 μM, 6 h), 53.82%; in data set [4] (Nilotinib 3 μM, 12 h), 36.19%. Further, the “ΔCτ Drug Mean” value is recorded as −1.26 in data set [3] (Nilotinib 30 nM, 6 h, N=14); −1.56 in data set [3] (Nilotinib 30 nM, 12 h, N=14); −1.05 in data set [3] (Nilotinib 3 μM, 6 h, N=14); −1.36 in data set [3] (Nilotinib 3 μM, 12 h, N=14); −2.03 in data set [4] (Nilotinib 30 nM, 6 h); −2.63 in data set [4] (Nilotinib 30 nM, 12 h). In addition, the “ΔCτ Drug Mean” value in data set [4] (Nilotinib 3 μM, 6 h) was −0.86; in data set [4] (Nilotinib 3 μM, 12 h), −1.46.
As for `Cc1ccc(NC(=O)c2ccc(CN3CCN(C)CC3)cc2)cc1Nc1nccc(-c2cccnc2)n1` [imatinib], the “pX decrease rate in live cells (%) Mean” value in data set [3] (Imatinib 600 nM, 6 h, N=14) was 23.83%; in data set [3] (Imatinib 600 nM, 12 h, N=14), “approximately 45%”; in data set [3] (Imatinib 600 nM, 12 h, N=14, listed as Imatinib) it was 45.46%; in data set [3] (Imatinib 5 μM, 6 h, N=14) it was 51.65%; in data set [3] (Imatinib 5 μM, 12 h, N=14), 58.25%; in data set [4] (Imatinib 600 nM, 6 h) it was 50.35%. The “pX decrease rate in live cells (%) Mean” value in data set [4] (Imatinib 600 nM, 12 h) is recorded as 66.37%; in data set [4] (Imatinib 5 μM, 6 h), 43.37%; in data set [4] (Imatinib 5 μM, 12 h), 44.99%. For the same compound, the “ΔCτ Drug Mean” value in data set [3] (Imatinib 600 nM, 6 h, N=14) was −0.28; in data set [3] (Imatinib 600 nM, 12 h, N=14), −0.98; in data set [3] (Imatinib 5 μM, 6 h, N=14), −1.45; in data set [4] (Imatinib 600 nM, 6 h), −1.30; in data set [4] (Imatinib 600 nM, 12 h) it was −1.96; in data set [4] (Imatinib 5 μM, 6 h), −0.99. The “ΔCτ Drug Mean” value in data set [4] (Imatinib 5 μM, 12 h) was −1.49. In addition, the “peripheral blood PVL” value in data set [5] (1 year and 5 months after drug administration) amounted to 448 copies/10^4 PBMCs; in data set [5] (after 5 months of drug administration, oral 400 then 300 mg/day), 1138 copies.
